In patent US20230159445A1, “STAT INHIBITORY COMPOUNDS AND COMPOSITIONS” (JANPIX LIMITED, priority 2020, published 2023):

How the values were obtained:
MV4-11 cells = test: MV4-11 Cell Cytotoxicity Assay (CellTiter-Blue, 72 h); format: cell-based, human; conditions: Homo sapiens, MV4-11; MV-4-11 cells
Method in brief: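 Cells seeded 24 h before treatment, then exposed 72 h at 37° C, 5% CO2 to inhibitors in triplicate, top concentration 50 μM with 1:2 serial dilutions (0.5% DMSO vehicle). Viability read by CellTiter-Blue fluorescence at 560/590 nm after 1 h.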

glutathione (GSH) = test: Reactivity Profiling with Glutathione (GSH), half-life by HPLC; conditions: 5 mM glutathione (GSH) in IMDM with 10% FBS

half-life at 25 μM (glutathione (GSH)) [min]	SMILES	IC50 (MV4-11 cells) [nM]
0.1 to 142	O=C(O)c1ccc(N(Cc2cccc(N3CCCC3)c2)C(=O)CN(Cc2ncccc2C(F)(F)F)S(=O)(=O)c2c(F)c(F)c(F)c(F)c2F)c(OC2CC2)c1 [Compound 1160, 3-cyclopropoxy-4-(2-(N-((3-(trifluoromethyl)pyridin-2-yl)methyl)-(2,3,4,5,6-pentafluoro-phenyl)sulfonamido)-N-(3-(pyrrolidin-1-yl)benzyl)acetamido) benzoic acid]	
142 to 247	COc1cc(C(=O)O)ccc1N(Cc1cc(C2CC2)cc(C(C)(C)C)c1)C(=O)CN(Cc1ccc(F)cc1C#N)S(=O)(=O)c1c(F)c(F)c(F)c(F)c1F [Compound 1180, 4-(N-(3-(tert-butyl)-5-cyclopropylbenzyl)-2-(N-(2-cyano-4-fluorobenzyl)-(2,3,4,5,6-pentafluorophenyl)sulfon-amido)acetamido)-3-methoxybenzoic acid]	0.01 to 316
0.1 to 142	O=C(O)c1ccc(N(Cc2cccc(N3CCCC3)c2)C(=O)CN(Cc2cnccc2C(F)(F)F)S(=O)(=O)c2c(F)c(F)c(F)c(F)c2F)c(OC2CC2)c1 [Compound 1159, 3-cyclopropoxy-4-(2-(N-((4-(trifluoromethyl)pyridin-3-yl)methyl)-(2,3,4,5,6-pentafluoro-phenyl)sulfonamido)-N-(3-(pyrrolidin-1-yl)benzyl)acetamido) benzoic acid]	
0.1 to 142	COc1cc(C(=O)O)ccc1N(Cc1ccc2ccccc2c1)C(=O)CN(Cc1cnccc1C(F)(F)F)S(=O)(=O)c1c(F)c(F)c(F)c(F)c1F [Compound 1157, 3-methoxy-4-(N-(naphthalen-2-ylmethyl)-2-(N-((4-(trifluoromethyl)pyridin-3-yl)methyl)-(2,3,4,5,6-pentafluoro-phenyl)sulfonamido)acetamido)benzoic acid]	1000 to 3160
554 to 100000	COc1cc(C(=O)OC(C)C)ccc1N(Cc1cc(C2CC2)cc(C(C)(C)C)c1)C(=O)CN(Cc1cnccc1C(F)(F)F)S(=O)(=O)c1c(F)c(F)c(F)c(F)c1F [Compound 1172, isopropyl 4-(N-(3-(tert-butyl)-5-cyclopropylbenzyl)-2-(N-((4-(trifluoromethyl)pyridin-3-yl)methyl)-(2,3,4,5,6-pentafluoro-phenyl)sulfonamido)acetamido)-3-methoxybenzoate]	
554 to 100000	COc1cc(O)ccc1N(Cc1cc(C2CC2)cc(C(C)(C)C)c1)C(=O)CN(Cc1cnccc1C(F)(F)F)S(=O)(=O)c1c(F)c(F)c(F)c(F)c1F [Compound 1267, N-(3-(tert-butyl)-5-cyclopropylbenzyl)-N-(4-hydroxy-2-methoxyphenyl)-2-(N-((4-(trifluoromethyl)pyridin-3-yl)methyl)-(2,3,4,5,6-pentafluoro-phenyl)sulfonamido) acetamide]	
0.1 to 142	COc1cc(C(=O)O)ccc1N(Cc1cc(C2CC2)cc(C(C)(C)C)c1)C(=O)CN(Cc1ncc(Cl)cc1F)S(=O)(=O)c1c(F)c(F)c(F)c(F)c1F [Compound 1177, 4-(N-(3-(tert-butyl)-5-cyclopropylbenzyl)-2-(N-((5-chloro-3-fluoropyridin-2-yl)methyl)-(2,3,4,5,6-pentafluorophenyl)sulfon-amido)acetamido)-3-methoxybenzoic acid]	

Second part, the molecule before the results:

SMILES	half-life at 25 μM (glutathione (GSH)) [min]	IC50 (MV4-11 cells) [nM]
COc1cc(C(=O)O)ccc1N(Cc1cc(C2CC2)cc(C(C)(C)C)c1)C(=O)CN(Cc1cccnc1C(F)(F)F)S(=O)(=O)c1c(F)c(F)c(F)c(F)c1F [Compound 1097, 4-(N-(3-(tert-butyl)-5-cyclopropylbenzyl)-2-(N-((2-(trifluoromethyl)pyridin-3-yl)methyl)-(2,3,4,5,6-pentafluoro-phenyl)sulfonamido)acetamido)-3-methoxybenzoic acid]	247 to 554	316 to 1000
Cc1cc(C(=O)O)cc(C)c1N(Cc1cc(C2CC2)cc(C(C)(C)C)c1)C(=O)CN(Cc1ccccc1F)S(=O)(=O)c1c(F)c(F)c(F)c(F)c1F [Compound 1072, 4-(N-(3-(tert-butyl)-5-cyclopropylbenzyl)-2-(N-(2-fluorobenzyl)-(2,3,4,5,6-pentafluoro-phenyl)sulfonamido)acetamido)-3,5-dimethylbenzoic acid]	247 to 554	316 to 1000
CN(C)c1cc(N(Cc2cc(C3CC3)cc(C(C)(C)C)c2)C(=O)CN(Cc2ccccc2F)S(=O)(=O)c2c(F)c(F)c(F)c(F)c2F)ccc1C(=O)O [Compound 1071, 4-(N-(3-(tert-butyl)-5-cyclopropylbenzyl)-2-(N-(2-fluorobenzyl)-(2,3,4,5,6-pentafluoro-phenyl)sulfonamido)acetamido)-2-(dimethylamino) benzoic acid]	142 to 247	316 to 1000
COc1cc(C(=O)O)ccc1N(Cc1cc(C2CC2)cc(C(C)(C)C)c1)C(=O)C[C@@H](C)N(Cc1ccccc1F)S(=O)(=O)c1c(F)c(F)c(F)c(F)c1F [Compound 1073]	0.1 to 142	316 to 1000
COc1cc(C(=O)O)ccc1N(Cc1cc(C2CC2)cc(C(C)(C)C)c1)C(=O)CN(Cc1cc(C(F)(F)F)ccn1)S(=O)(=O)c1c(F)c(F)c(F)c(F)c1F [Compound 1134, 4-(N-(3-(tert-butyl)-5-cyclopropylbenzyl)-2-(N-((4-(trifluoromethyl)pyridin-2-yl)methyl)-(2,3,4,5,6-pentafluoro-phenyl)sulfonamido)acetamido)-3-methoxybenzoic acid]	142 to 247	1000 to 3160
CC(C)(C)c1cc(CN(C(=O)CN(Cc2ccc(Cl)cc2)S(=O)(=O)c2c(F)c(F)c(F)c(F)c2F)c2ccc(C(=O)O)cc2O)cc(C2CC2)c1 [Compound 1015, 4-(N-(3-(tert-butyl)-5-cyclopropylbenzyl)-2-(N-(4-chlorobenzyl)-(2,3,4,5,6-pentafluorophenyl)sulfon-amido)acetamido)-3-hydroxybenzoic acid]	247 to 554	3160 to 100000
CC(C)(C)c1cc(CN(C(=O)CN(Cc2ccccc2F)S(=O)(=O)c2c(F)c(F)c(F)c(F)c2F)c2ccc(C(=O)O)cc2OC2CC(F)(F)C2)cc(C2CC2)c1 [Compound 1093, 4-(N-(3-(tert-butyl)-5-cyclopropylbenzyl)-2-(N-(2-fluorobenzyl)-(2,3,4,5,6-pentafluoro-phenyl)sulfonamido)acetamido)-3-(3,3-difluorocyclobutoxy) benzoic acid]	554 to 100000	316 to 1000
COc1cc(C(=O)O)ccc1N(Cc1cc(C2CC2)cc(C(C)(C)C)c1)C(=O)CN(Cc1ccnc(C(F)(F)F)c1)S(=O)(=O)c1c(F)c(F)c(F)c(F)c1F [Compound 1133, 4-(N-(3-(tert-butyl)-5-cyclopropylbenzyl)-2-(N-((2-(trifluoromethyl)pyridin-4-yl)methyl)-(2,3,4,5,6-pentafluoro-phenyl)sulfonamido)acetamido)-3-methoxybenzoic acid]	0.1 to 142	316 to 1000
COc1cc(C(=O)O)ccc1N(Cc1cc(C2CC2)cc(C(C)(C)C)c1)C(=O)CN(Cc1ccc(F)cc1F)S(=O)(=O)c1c(F)c(F)c(F)c(F)c1F [Compound 1076, 4-(N-(3-(tert-butyl)-5-cyclopropylbenzyl)-2-(N-(2,4-difluorobenzyl)-(2,3,4,5,6-pentafluorophenyl)sulfon-amido)acetamido)-3-methoxybenzoic acid]	142 to 247	316 to 1000
Cc1cc(C(=O)O)ccc1N(Cc1cc(C2CC2)cc(C(C)(C)C)c1)C(=O)CN(Cc1ccccc1C#N)S(=O)(=O)c1c(F)c(F)c(F)c(F)c1F [Compound 1090, 4-(N-(3-(tert-butyl)-5-cyclopropylbenzyl)-2-(N-(2-cyanobenzyl)-(2,3,4,5,6-pentafluorophenyl)sulfon-amido)acetamido)-3-methylbenzoic acid]	142 to 247	316 to 1000
COc1cc(C(=O)O)ccc1N(Cc1cc(C2CC2)cc(C(C)(C)C)c1)C(=O)CN(Cc1c(Cl)cc(F)cc1Cl)S(=O)(=O)c1c(F)c(F)c(F)c(F)c1F [Compound 1079, 4-(N-(3-(tert-butyl)-5-cyclopropylbenzyl)-2-(N-(2,6-dichloro-4-fluorobenzyl)-(2,3,4,5,6-pentafluorophenyl)sulfon-amido)acetamido)-3-methoxybenzoic acid]	247 to 554	0.01 to 316
COc1cc(C(=O)O)ccc1N(Cc1cc(C2CC2)cc(C(C)(C)C)c1)C(=O)CN(Cc1ncccc1F)S(=O)(=O)c1c(F)c(F)c(F)c(F)c1F [Compound 1084, 4-(N-(3-(tert-butyl)-5-cyclopropylbenzyl)-2-(N-((3-fluoropyridin-2-yl)methyl)-(2,3,4,5,6-pentafluoro-phenyl)sulfonamido)acetamido)-3-methoxybenzoic acid]	0.1 to 142	316 to 1000
CC(C)(C)c1cc(CN(C(=O)CN(Cc2ccccc2C(F)(F)F)S(=O)(=O)c2c(F)c(F)c(F)c(F)c2F)c2ccc(C(=O)O)c(O)c2)cc(C2CC2)c1 [Compound 1048, 4-(N-(3-(tert-butyl)-5-cyclopropylbenzyl)-2-(N-(2-(trifluoromethyl)benzyl)-(2,3,4,5,6-pentafluoro-phenyl)sulfonamido)acetamido)-2-hydroxybenzoic acid]	554 to 100000	1000 to 3160
CC(C)c1cc(CN(C(=O)CN(Cc2ccc(Cl)cc2)S(=O)(=O)c2c(F)c(F)c(F)c(F)c2F)c2ccc(C(=O)O)c(O)c2)cc(C2CC2)c1 [Compound 1021, 4-(2-(N-(4-chlorobenzyl)-(2,3,4,5,6-pentafluorophenyl)sulfon-amido)-N-(3-cyclopropyl-5-isopropylbenzyl)acetamido)-2-hydroxybenzoic acid]	0.1 to 142	3160 to 100000
Cc1cc(C(=O)O)ccc1N(Cc1cc(C2CC2)cc(C(C)(C)C)c1)C(=O)CN(Cc1ccc(Cl)cc1)S(=O)(=O)c1c(F)c(F)c(F)c(F)c1F [Compound 1056, 4-(N-(3-(tert-butyl)-5-cyclopropylbenzyl)-2-(N-(4-chlorobenzyl)-(2,3,4,5,6-pentafluorophenyl)sulfon-amido)acetamido)-3-methylbenzoic acid]	247 to 554	316 to 1000
